We go through 16 compounds from patent US20110190503A1, “Thiazolopyridin-2-yloxy-phenyl and thiazolopyrazin-2-yloxy-phenyl amines as modulators of leukotriene A4 hydrolase” (Janssen Pharmaceutical NV, priority 2008, published 2011).

The target of assay [1] is T1, recombinant human LTA4 hydrolase (rhLTA4H) (Homo sapiens, UniProt P09960).
T1 construct: made in house; host or cells: Spodoptera frugiperda (Sf-9) cells, recombinant baculovirus (pFastBac1)
T1 sequence (P09960 1-611): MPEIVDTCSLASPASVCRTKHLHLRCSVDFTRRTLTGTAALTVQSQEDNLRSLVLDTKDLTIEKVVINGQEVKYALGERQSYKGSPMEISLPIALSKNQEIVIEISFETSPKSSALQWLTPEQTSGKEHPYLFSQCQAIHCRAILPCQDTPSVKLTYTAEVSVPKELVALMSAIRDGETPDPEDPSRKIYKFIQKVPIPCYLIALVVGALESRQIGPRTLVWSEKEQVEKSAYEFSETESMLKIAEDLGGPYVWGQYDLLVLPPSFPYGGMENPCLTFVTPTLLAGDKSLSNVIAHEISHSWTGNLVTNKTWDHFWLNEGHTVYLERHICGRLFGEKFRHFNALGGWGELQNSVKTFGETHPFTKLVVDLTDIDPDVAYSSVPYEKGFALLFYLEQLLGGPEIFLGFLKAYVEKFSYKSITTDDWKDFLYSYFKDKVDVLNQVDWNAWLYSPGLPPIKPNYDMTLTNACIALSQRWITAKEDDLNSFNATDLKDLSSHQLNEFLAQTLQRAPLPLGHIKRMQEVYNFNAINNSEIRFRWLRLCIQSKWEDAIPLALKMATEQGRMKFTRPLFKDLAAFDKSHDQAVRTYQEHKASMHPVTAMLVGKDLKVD
As to the kind of experiment: Recombinant human LTA4 hydrolase assay for LTA4 hydrolase inhibitor activity. In kind it is biochemical. Conditions: rhLTA4H, LTA4 substrate, LTB4 by immunoassay; single determination or average; read-out: IC50. In a few lines: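 Recombinant human LTA4H from baculovirus-infected Sf-9 cells (10 ng) pre-incubated 10 min at rt with compound (10% DMSO in dilutions), then reacted with free-acid LTA4 for 30 min at rt. LTB4 measured by ELISA; IC50 by nonlinear regression. Values are single determinations or averages.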

For assay [2], the system named is ex vivo stimulated LTB4 production. As to the kind of experiment: Murine arachidonic acid-induced inflammation model: ex vivo stimulated LTB4 production (% Inh. LTB4). Conditions: Mus musculus; female Balb/c mice, 30 mg/kg oral gavage; blood taken 3 h after arachidonic acid, ex vivo A23187 stimulation; number of determinations in parentheses. As to the method:
(§1) Assay 4: Murine Arachidonic Acid-Induced Inflammation Model
(§2) LTA4H inhibitor compounds of the present invention were dissolved in 20% cyclodextran/H2O at a concentration of 3 mg/mL. The solutions were administered by oral gavage to female Balb/c mice weighing approximately 20 grams each (0.2 mL per mouse, 30 mg of LTA4H inhibitor compound per kg). Sixty minutes after being administered an LTA4 inhibitor, each mouse received topical application of 20 μL of arachidonic acid (100 mg/mL in acetone) to the left ear and 20 μL of acetone only to the right ear. After 3 h, the mice were sacrificed, blood was withdrawn in heparinized syringes, and 8 mm ear biopsies were taken. Ear biopsies were weighed to determine edema and then frozen at −80° C. until needed for determination of neutrophil influx.
One hundred-microliter aliquots of heparinized blood were added to wells of a microtiter plate, along with equal volumes of RPMI-1640 medium, and calcium ionophore A23187 was added to each sample well (final concentration=[…]). The microtiter plate contents were incubated for 30 min at 37° C. in a humidified incubator. The reaction was terminated by centrifugation (833×g, 10 min at 4° C.). Supernatants were analyzed for LTB4 by a commercially available enzyme-linked immunoassay (Cayman Chemical Co.) in accordance with the manufacturer's instructions. The percent inhibition of ex vivo stimulated LTB4 production (% Inh. LTB4) was determined by comparison to animals treated identically except that the solution administered by oral gavage was devoid of inhibitor compound.
(§3) The number of determinations is indicated in parentheses following each value

A further assay concerns neutrophil influx. Briefly: Murine arachidonic acid-induced inflammation model: neutrophil influx in ear, myeloperoxidase activity (% Inh. MPO). The format is in vivo. The following applies: Mus musculus, female Balb/c mice, 30 mg/kg oral gavage, ear biopsy 3 h after topical arachidonic acid, number of determinations in parentheses. On the procedure: as §1, §2
Neutrophil influx was quantified by measuring the activity of myeloperoxidase (MPO), a neutrophil-specific enzyme. The ear biopsies were homogenized in 0.5 mL extraction buffer (0.3 M sucrose, 0.22% (w/v) hexadecyl trimethyl ammonium bromide (CTAB), and 2.5 mM citrate prepared from 0.5 M citrate stock solution (pH 5.0)), in a Fast-Prep-24 (MP™) (40 seconds at 6 mps). Debris was removed by centrifugation at 14000×g for 10 min. Aliquots of 10 μL of the resulting supernatant were added to wells of a microtiter plate, along with 90-μL aliquots of dilution buffer (10 mM citrate, 0.22% CTAB), followed by addition of 20 μL TMB liquid substrate system (Sigma Chemical Co.) to each sample well. The microtiter plate contents were held at room temperature until the sample with the highest concentration of MPO reached an absorbance value of 0.4 at 650 nm. The reaction was stopped by addition of 50 μL 1 M H2SO4 to each sample well, and the myeloperoxidase activity in each sample was determined from the absorbance at 405 nm. The background value from the right ear, treated only with acetone, was subtracted from that for the left ear, treated with arachidonic acid in acetone, for each animal. The percent inhibition of neutrophil influx (% Inh. MPO) by compounds of the invention was determined by comparison to animals treated identically, except that the solution administered by oral gavage was devoid of inhibitor compound.
as §3

For assay [3], the system named is LTB4 production by calcium ionophore-stimulated murine blood. As to the kind of experiment: LTB4 production by calcium ionophore-stimulated murine blood for LTA4H inhibitor activity. In kind it is cell-based, CD-1 mice. The following applies: Mus musculus; murine blood diluted 1 in 15, calcium ionophore A23187, LTB4 by immunoassay; read-out: IC50. The method, boiled down:
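Heparinized CD-1 mouse blood pre-incubated with compound 15 min at 37° C, then stimulated with calcium ionophore A23187 (7 μg/mL final) for 30 min. LTB4 in supernatant measured by enzyme immunoassay; values are single or averaged determinations, with SD for n≥3.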

Each structure is given as a SMILES string.

As to `c1cnc2nc(Oc3ccc(CN4CCC(N5CCOCC5)CC4)cc3)sc2c1` [Example 257, 2-{4-[(4-Morpholin-4-ylpiperidin-1-yl)methyl]phenoxy}[1,3]thiazolo[4,5-b]pyridine], the IC50 (commonly the concentration that inhibits the measured activity by half) in assay [1] was found to be 29 nM; in assay [3], 97 nM. For the same compound, the inhibition (usually the drop in the measured response relative to a control, in per cent) at 30 mg/kg in assay [2] was 86%. Besides, in the assay on neutrophil influx, the inhibition in vivo (in general, the percentage by which the read-out fell short of the control) at 30 mg/kg came out at 70.5%.

Turning to `c1cnc2nc(Oc3ccc(CN4CCOCC4)cc3)sc2c1` [Example 86, 2-[4-(Morpholin-4-ylmethyl)phenoxy][1,3]thiazolo[4,5-b]pyridine], the values for the IC50 in assay [1] and in assay [3] were 12 nM and 60 nM, respectively. Moreover, the inhibition at 30 mg/kg in assay [2] came to 70.8%. In addition, the inhibition in vivo at 30 mg/kg in the assay with neutrophil influx came to 51.5%.

As for `CC(=O)N[C@@H]1C[C@H]2CC[C@@H](C1)N2CCOc1ccc(Oc2nc3ncccc3s2)cc1` [Example 17, meso-N-[(3-exo)-8-{2-[4-([1,3]Thiazolo[4,5-b]pyridin-2-yloxy)phenoxy]ethyl}-8-azabicyclo[3.2.1]oct-3-yl]acetamide], the IC50 in assay [1] was 2 nM; in assay [3] it was 25 nM. Besides, in assay [2], the inhibition at 30 mg/kg was determined as 81.5%. In addition, in the assay with neutrophil influx, the inhibition in vivo at 30 mg/kg turned out to be 63.4%.

With `CC(=O)N[C@H]1C[C@H]2CC[C@@H](C1)N2CCOc1ccc(Oc2nc3ncccc3s2)cc1` [Example 16, meso-N-[(3-endo)-8-{2-[4-([1,3]Thiazolo[4,5-b]pyridin-2-yloxy)phenoxy]ethyl}-8-azabicyclo[3.2.1]oct-3-yl]acetamide], the 50% inhibitory concentration (IC50) was found to be 3 nM in assay [1] and 26 nM in assay [3]. In addition, in assay [2], the inhibition at 30 mg/kg was found to be 84.6%. In the assay with neutrophil influx, the inhibition in vivo at 30 mg/kg came to 73.6%.

Consider `c1cnc2nc(Oc3ccc(CN4CCCC4)cc3)sc2c1` [Example 84, 2-[4-(Pyrrolidin-1-ylmethyl)phenoxy][1,3]thiazolo[4,5-b]pyridine], for which the IC50 was 2.1 nM in assay [1] and 39 nM in assay [3]. Further, the inhibition at 30 mg/kg in assay [2] stood at 53.9%. The inhibition in vivo at 30 mg/kg in the assay on neutrophil influx amounted to 72%.

As for `O=C1C[C@@H](O)CN1C1CCN(Cc2ccc(Oc3nc4ncccc4s3)cc2)CC1` [Example 269, (4R)-4-Hydroxy-1-{1-[4-([1,3]thiazolo[4,5-b]pyridin-2-yloxy)benzyl]piperidin-4-yl}pyrrolidin-2-one], the results for the 50% inhibitory concentration (IC50) in assay [1] and in assay [3] were 3 nM and 77 nM, respectively. In assay [2], the inhibition at 30 mg/kg was found to be 84.4%. Moreover, the inhibition in vivo at 30 mg/kg with neutrophil influx amounted to 90.6%.

As for `c1cnc2nc(Oc3ccc(CN4CCCCC4)cc3)sc2c1` [Example 85, 2-[4-(Piperidin-1-ylmethyl)phenoxy][1,3]thiazolo[4,5-b]pyridine], the concentration for half-maximal inhibition (IC50) in assay [1] was determined as 2.9 nM; in assay [3] it was 37 nM. Besides, the inhibition at 30 mg/kg in assay [2] worked out at 66.8%. The inhibition in vivo at 30 mg/kg with neutrophil influx turned out to be 48.4%.

For the compound `OC1(c2ccccc2)CCN(CCOc2ccc(Oc3nc4ncccc4s3)cc2)CC1` [Example 27, 4-Phenyl-1-{2-[4-([1,3]thiazolo[4,5-b]pyridin-2-yloxy)phenoxy]ethyl}piperidin-4-ol], the IC50 came to 32 nM in assay [1] and 160 nM in assay [3]. For the same compound, in assay [2], the inhibition at 30 mg/kg is 78.2%. The inhibition in vivo at 30 mg/kg in the assay on neutrophil influx turned out to be 83.7%.

Turning to `Cc1ccnc2nc(Oc3ccc(CN4CCC(C(N)=O)CC4)cc3)sc12` [Example 282, 1-{4-[(7-Methyl[1,3]thiazolo[4,5-b]pyridin-2-yl)oxy]benzyl}piperidine-4-carboxamide], the IC50 was 66 nM in assay [1] and 155 nM in assay [3]. Further, the inhibition at 30 mg/kg in assay [2] amounted to 62.8%. The inhibition in vivo at 30 mg/kg in the assay on neutrophil influx worked out at 61.1%.

With `CC(=O)N1C[C@@H]2CC[C@H]1CN2Cc1ccc(Oc2nc3ncccc3s2)cc1` [Example 290, 2-(4-{[(1S,4S)-5-Acetyl-2,5-diazabicyclo[2.2.2]oct-2-yl]methyl}phenoxy)[1,3]thiazolo[4,5-b]pyridine], the IC50 in assay [1] worked out at 6 nM; in assay [3] it was 5 nM. Also, the inhibition at 30 mg/kg in assay [2] amounted to 82.9%. The inhibition in vivo at 30 mg/kg with neutrophil influx is 86.9%.

`c1cnc2nc(Oc3ccc(CCN4CCCC4)cc3)sc2c1` [Example 61, 2-[4-(2-Pyrrolidin-1-ylethyl)phenoxy][1,3]thiazolo[4,5-b]pyridine]: the 50% inhibitory concentration (IC50) stood at 4 nM in assay [1] and 11 nM in assay [3]. In addition, the inhibition at 30 mg/kg in assay [2] was 67.4%. Moreover, the inhibition in vivo at 30 mg/kg in the assay with neutrophil influx came to 62.8%.

For the compound `c1cnc2nc(Oc3ccc(CCN4CCCCC4)cc3)sc2c1` [Example 60, 2-[4-(2-Piperidin-1-ylethyl)phenoxy][1,3]thiazolo[4,5-b]pyridine], the IC50 in assay [1] stood at 3 nM; in assay [3] it was 15 nM. The inhibition at 30 mg/kg in assay [2] came to 69.5%. Moreover, in the assay on neutrophil influx, the inhibition in vivo at 30 mg/kg was 35.8%.

For the compound `NC(=O)N1C[C@H]2C[C@@H]1CN2CCc1ccc(Oc2nc3ncccc3s2)cc1` [Example 80, (1R,4R)-5-{2-[4-([1,3]Thiazolo[4,5-b]pyridin-2-yloxy)phenyl]ethyl}-2,5-diazabicyclo[2.2.1]heptane-2-carboxamide], the values for the concentration for half-maximal inhibition (IC50) in assay [1] and in assay [3] were 2 nM and 80 nM, respectively. Besides, in assay [2], the inhibition at 30 mg/kg was determined as 72.1%. In addition, the inhibition in vivo at 30 mg/kg with neutrophil influx stood at 37%.

Regarding `CC(C)(O)C1CCN(Cc2ccc(Oc3nc4ncccc4s3)cc2)CC1` [Example 89, 2-{1-[4-([1,3]Thiazolo[4,5-b]pyridin-2-yloxy)benzyl]piperidin-4-yl}propan-2-ol], the IC50 in assay [1] was found to be 42 nM; in assay [3], 110 nM. In addition, the inhibition at 30 mg/kg in assay [2] was 79.5%. In the assay on neutrophil influx, the inhibition in vivo at 30 mg/kg turned out to be 79.1%.

For the compound `NC(=O)N1C[C@H]2CC[C@@H](C1)N2CCc1ccc(Oc2nc3ncccc3s2)cc1` [Example 54, meso-8-{2-[4-([1,3]Thiazolo[4,5-b]pyridin-2-yloxy)phenyl]ethyl}-3,8-diazabicyclo[3.2.1]octane-3-carboxamide], the values for the concentration for half-maximal inhibition (IC50) in assay [1] and in assay [3] were 9.6 nM and 75 ± 71 nM, respectively. Also, the inhibition at 30 mg/kg in assay [2] amounted to 81.2%. Further, the inhibition in vivo at 30 mg/kg in the assay with neutrophil influx was found to be 87.7%.

As for `NC(=O)C1CCN(Cc2ccc(Oc3nc4ncc(F)cc4s3)cc2)CC1` [Example 283, 1-{4-[(6-Fluoro[1,3]thiazolo[4,5-b]pyridin-2-yl)oxy]benzyl}piperidine-4-carboxamide], in assay [2], the inhibition at 30 mg/kg was found to be 78.2%. Also, the inhibition in vivo at 30 mg/kg in the assay on neutrophil influx was found to be 88.3%. In assay [3], the IC50 was 68 nM.
